4 compounds from PubChem BioAssay AID1259407 (Chemical Carcinogenesis Research Information System (CCRIS), 2018) can be followed below.

The source made the active and inactive calls. How the calls were made is not given here.

This data set concerns CCRIS mutagenicity, Ames/micronucleus/aberration tests. The data set is described as follows: CCRIS mutagenicity studies.

Take `FC(F)(F)c1ccc(Cl)cc1`: the mutagenic call reads like this: (Test System: AMES SALMONELLA TYPHIMURIUM, Strain/Indicator: TA98, Metabolic Activation: HAMSTER, LIVER, S-9, AROCLOR 1254, Method: STANDARD PLATE) “inactive; negative”; (Test System: AMES SALMONELLA TYPHIMURIUM, Strain/Indicator: TA98, Metabolic Activation: NONE, Method: STANDARD PLATE) “inactive; negative”; (Test System: AMES SALMONELLA TYPHIMURIUM, Strain/Indicator: TA98, Metabolic Activation: RAT, LIVER, S-9, AROCLOR 1254, Method: STANDARD PLATE) “inactive; negative”; (Test System: AMES SALMONELLA TYPHIMURIUM, Strain/Indicator: TA100, Metabolic Activation: HAMSTER, LIVER, S-9, AROCLOR 1254, Method: STANDARD PLATE) “inactive; negative”; (Test System: AMES SALMONELLA TYPHIMURIUM, Strain/Indicator: TA100, Metabolic Activation: NONE, Method: STANDARD PLATE) “inactive; negative”; (Test System: AMES SALMONELLA TYPHIMURIUM, Strain/Indicator: TA100, Metabolic Activation: RAT, LIVER, S-9, AROCLOR 1254, Method: STANDARD PLATE) “inactive; negative”. In addition, the mutagenic call reads like this: (Test System: AMES SALMONELLA TYPHIMURIUM, Strain/Indicator: TA1535, Metabolic Activation: HAMSTER, LIVER, S-9, AROCLOR 1254, Method: STANDARD PLATE) “inactive; negative”; (Test System: AMES SALMONELLA TYPHIMURIUM, Strain/Indicator: TA1535, Metabolic Activation: NONE, Method: STANDARD PLATE) “inactive; negative”; (Test System: AMES SALMONELLA TYPHIMURIUM, Strain/Indicator: TA1535, Metabolic Activation: RAT, LIVER, S-9, AROCLOR 1254, Method: STANDARD PLATE) “inactive; negative”; (Test System: AMES SALMONELLA TYPHIMURIUM, Strain/Indicator: TA1537, Metabolic Activation: HAMSTER, LIVER, S-9, AROCLOR 1254, Method: STANDARD PLATE) “inactive; negative”; (Test System: AMES SALMONELLA TYPHIMURIUM, Strain/Indicator: TA1537, Metabolic Activation: NONE, Method: STANDARD PLATE) “inactive; negative”; (Test System: AMES SALMONELLA TYPHIMURIUM, Strain/Indicator: TA1537, Metabolic Activation: RAT, LIVER, S-9, AROCLOR 1254, Method: STANDARD PLATE) “inactive; negative”. Besides, the mutagenic call runs as follows: (Test System: AMES SALMONELLA TYPHIMURIUM, Strain/Indicator: TA1538, Metabolic Activation: HAMSTER, LIVER, S-9, AROCLOR 1254, Method: STANDARD PLATE) “inactive; negative”; (Test System: AMES SALMONELLA TYPHIMURIUM, Strain/Indicator: TA1538, Metabolic Activation: NONE, Method: STANDARD PLATE) “inactive; negative”; (Test System: AMES SALMONELLA TYPHIMURIUM, Strain/Indicator: TA1538, Metabolic Activation: RAT, LIVER, S-9, AROCLOR 1254, Method: STANDARD PLATE) “inactive; negative”; (Test System: MOUSE LYMPHOMA, Strain/Indicator: L5178Y (TK+/TK-), Metabolic Activation: NONE, Method: SUSPENSION/PLATE) “inactive; negative. reevaluation of results: negative”; (Test System: MOUSE LYMPHOMA, Strain/Indicator: L5178Y (TK+/TK-), Metabolic Activation: RAT, LIVER, S-9, AROCLOR 1254, Method: SUSPENSION/PLATE) “inactive; negative. reevaluation of results: equivocal”.
`FC(F)(Cl)Br`: the mutagenic call (Test System: AMES SALMONELLA TYPHIMURIUM, Strain/Indicator: TA98, Metabolic Activation: NONE, Method: DESICCATOR) was “inactive; negative”; the mutagenic call (Test System: AMES SALMONELLA TYPHIMURIUM, Strain/Indicator: TA100, Metabolic Activation: NONE, Method: DESICCATOR) was “inactive; negative”; the mutagenic call (Test System: AMES SALMONELLA TYPHIMURIUM, Strain/Indicator: TA100, Metabolic Activation: RAT, LIVER, S-9, AROCLOR 1254, Method: DESICCATOR) is “inactive; negative”; the mutagenic call (Test System: AMES SALMONELLA TYPHIMURIUM, Strain/Indicator: TA1535, Metabolic Activation: NONE, Method: DESICCATOR) is “active; positive”; the mutagenic call (Test System: AMES SALMONELLA TYPHIMURIUM, Strain/Indicator: TA1535, Metabolic Activation: RAT, LIVER, S-9, AROCLOR 1254, Method: DESICCATOR) was “active; positive”; the mutagenic call (Test System: AMES SALMONELLA TYPHIMURIUM, Strain/Indicator: TA1538, Metabolic Activation: RAT, LIVER, S-9, AROCLOR 1254, Method: DESICCATOR) is “inactive; negative”. Also, the mutagenic call runs as follows: (Test System: MOUSE LYMPHOMA, Strain/Indicator: L5178Y (TK+/TK-), Metabolic Activation: NONE, Method: DESICCATOR) “inactive; negative”; (Test System: MOUSE LYMPHOMA, Strain/Indicator: L5178Y (TK+/TK-), Metabolic Activation: S-9, Method: DESICCATOR) “inactive; negative”.
Take `CC(C)(C)OOC(C)(C)CCC(C)(C)OOC(C)(C)C`: the mutagenic call (Test System: AMES SALMONELLA TYPHIMURIUM, Strain/Indicator: TA97, Metabolic Activation: HAMSTER, LIVER, S-9, AROCLOR 1254 (10 OR 30%), Method: PREINCUBATION) was “inactive; negative”; the mutagenic call (Test System: AMES SALMONELLA TYPHIMURIUM, Strain/Indicator: TA97, Metabolic Activation: NONE, Method: PREINCUBATION) was “inactive; negative”; the mutagenic call (Test System: AMES SALMONELLA TYPHIMURIUM, Strain/Indicator: TA97, Metabolic Activation: RAT, LIVER, S-9, AROCLOR 1254 (10 OR 30%), Method: PREINCUBATION) is “inactive; negative”; the mutagenic call (Test System: AMES SALMONELLA TYPHIMURIUM, Strain/Indicator: TA98, Metabolic Activation: HAMSTER, LIVER, S-9, AROCLOR 1254 (10 OR 30%), Method: PREINCUBATION) was “inactive; negative”; the mutagenic call (Test System: AMES SALMONELLA TYPHIMURIUM, Strain/Indicator: TA98, Metabolic Activation: NONE, Method: PREINCUBATION) is “inactive; negative”; the mutagenic call (Test System: AMES SALMONELLA TYPHIMURIUM, Strain/Indicator: TA98, Metabolic Activation: RAT, LIVER, S-9, AROCLOR 1254 (10 OR 30%), Method: PREINCUBATION) is “inactive; negative”. Besides, the mutagenic call (Test System: AMES SALMONELLA TYPHIMURIUM, Strain/Indicator: TA100, Metabolic Activation: HAMSTER, LIVER, S-9, AROCLOR 1254 (10 OR 30%), Method: PREINCUBATION) is “inactive; negative”; the mutagenic call (Test System: AMES SALMONELLA TYPHIMURIUM, Strain/Indicator: TA100, Metabolic Activation: NONE, Method: PREINCUBATION) was “inactive; negative”; the mutagenic call (Test System: AMES SALMONELLA TYPHIMURIUM, Strain/Indicator: TA100, Metabolic Activation: RAT, LIVER, S-9, AROCLOR 1254 (10 OR 30%), Method: PREINCUBATION) was “inactive; negative”; the mutagenic call (Test System: AMES SALMONELLA TYPHIMURIUM, Strain/Indicator: TA1535, Metabolic Activation: HAMSTER, LIVER, S-9, AROCLOR 1254 (10 OR 30%), Method: PREINCUBATION) is “inactive; negative”; the mutagenic call (Test System: AMES SALMONELLA TYPHIMURIUM, Strain/Indicator: TA1535, Metabolic Activation: NONE, Method: PREINCUBATION) is “inactive; negative”; the mutagenic call (Test System: AMES SALMONELLA TYPHIMURIUM, Strain/Indicator: TA1535, Metabolic Activation: RAT, LIVER, S-9, AROCLOR 1254 (10 OR 30%), Method: PREINCUBATION) is “inactive; negative”.
As for `C=CCC`, the mutagenic call runs as follows: (Test System: AMES SALMONELLA TYPHIMURIUM, Strain/Indicator: TA98, Metabolic Activation: NONE, Method: GAS EXPOSURE) “inactive; negative”; (Test System: AMES SALMONELLA TYPHIMURIUM, Strain/Indicator: TA98, Metabolic Activation: RAT LIVER S-9, PHENOBARBITAL AND BETA-NAPHTHOFLAVONE (40%), Method: GAS EXPOSURE) “inactive; negative”; (Test System: AMES SALMONELLA TYPHIMURIUM, Strain/Indicator: TA100, Metabolic Activation: NONE, Method: GAS EXPOSURE) “inactive; negative”; (Test System: AMES SALMONELLA TYPHIMURIUM, Strain/Indicator: TA100, Metabolic Activation: RAT LIVER S-9, PHENOBARBITAL AND BETA-NAPHTHOFLAVONE (40%), Method: GAS EXPOSURE) “inactive; negative”; (Test System: AMES SALMONELLA TYPHIMURIUM, Strain/Indicator: TA1535, Metabolic Activation: NONE, Method: GAS EXPOSURE) “inactive; negative”; (Test System: AMES SALMONELLA TYPHIMURIUM, Strain/Indicator: TA1535, Metabolic Activation: RAT LIVER S-9, PHENOBARBITAL AND BETA-NAPHTHOFLAVONE (40%), Method: GAS EXPOSURE) “inactive; negative”. Moreover, the mutagenic call (Test System: AMES SALMONELLA TYPHIMURIUM, Strain/Indicator: TA1537, Metabolic Activation: NONE, Method: GAS EXPOSURE) was “inactive; negative”; the mutagenic call (Test System: AMES SALMONELLA TYPHIMURIUM, Strain/Indicator: TA1537, Metabolic Activation: RAT LIVER S-9, PHENOBARBITAL AND BETA-NAPHTHOFLAVONE (40%), Method: GAS EXPOSURE) is “inactive; negative”; the mutagenic call (Test System: E.COLI, Strain/Indicator: WP2UVRA, Metabolic Activation: NONE, Method: GAS EXPOSURE) was “inactive; negative”; the mutagenic call (Test System: E.COLI, Strain/Indicator: WP2UVRA, Metabolic Activation: RAT LIVER S-9, PHENOBARBITAL AND BETA-NAPHTHOFLAVONE (40%), Method: GAS EXPOSURE) was “inactive; negative”.
